Measurements taken from article PMC7994753, “The Availability of the α7-Nicotinic Acetylcholine Receptor in Early Identification of Vulnerable Atherosclerotic Plaques: A Study Using a Novel ^18F-Label Radioligand PET” (Frontiers in Bioengineering and Biotechnology, 2021).

Legend:
[1] = target: α7nAChR; set-up: method as in Wang S. et al., 2018; settings: previous experiment, ref Wang S. et al., 2018; cited from earlier work
[2] = target: T1, α7nAChR in atherosclerotic plaques (Mus musculus, UniProt P49582); assay: Micro-PET/CT imaging of carotid atherosclerotic plaques; assay type: in vivo, ApoE-/-mice and normal mice
T1 construct: superimposed on the high uptake region in carotid arteries of ApoE-/-mice; from tissue; host or cells: carotid arteries / atherosclerotic plaques of living ApoE-/- mice and normal mice
T1 sequence (P49582 23-502): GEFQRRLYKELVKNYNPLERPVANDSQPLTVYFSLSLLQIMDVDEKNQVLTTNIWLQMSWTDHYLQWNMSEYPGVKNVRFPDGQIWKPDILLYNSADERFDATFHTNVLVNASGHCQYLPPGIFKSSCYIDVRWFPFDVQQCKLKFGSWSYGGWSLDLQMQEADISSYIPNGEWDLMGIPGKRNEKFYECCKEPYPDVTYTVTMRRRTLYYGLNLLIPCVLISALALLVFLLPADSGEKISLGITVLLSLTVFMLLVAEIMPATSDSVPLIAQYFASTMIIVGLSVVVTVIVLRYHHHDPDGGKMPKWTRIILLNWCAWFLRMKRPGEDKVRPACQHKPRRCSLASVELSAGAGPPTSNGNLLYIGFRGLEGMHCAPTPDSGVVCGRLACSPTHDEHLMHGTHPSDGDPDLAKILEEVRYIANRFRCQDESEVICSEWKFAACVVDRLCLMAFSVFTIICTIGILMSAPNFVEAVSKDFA
Text: ApoE-/-mice (n = 6, weight 25–33 g) and normal mice (n = 6, weight 25–33g) were purchased from Qingzilan Technology Co., Ltd (Nanjing, China). After 1 week of feeding with common feed, the selected ApoE-/-mice were fed with western diet, containing 21% fat and 0.15% cholesterol content, with a high-fat/high-cholesterol content for 9–10 weeks and subjected to micro-PET/CT imaging. The tissues were used for red staining and immunohistochemistry experiments. The normal mice served as controls for micro-PET/CT imaging and their tissues for immunohistochemistry. All mice were kept in a temperature-controlled environment with a 12 h light/dark cycle with free access to food and water. Animal care and experimental procedures were conducted in compliance with the Helsinki Declaration and approved by Fuwai hospital animal care committee.
When the animal models were 10 and 11 weeks old, the micro-PET/CT imaging were conducted. An Inveon small animal PET/CT scanner (Siemens,Germany) was used to perform the scans. A total volume of 5.56 MBq (150 μCi) of [^18F]YLF-DW was injected into six ApoE-/-mice and six normal mice by the tail veins, and the animal models were anesthetized with 2% isoflurane through inhalation. We performed PET/CT dynamic scanning. After screening, the acquisition was performed at 1 h after tail vein injections. The micro-PET/CT was initially performed with the following parameters: energy peak, 511 keV; window width, 3.5 E0 SUV-bw; resolution, 0.775 mm/pixel; and matrix, 128 × 128. Each mouse required a 15-min acquisition and the computed tomography (CT) was performed after PET scanning in the same bed position using the following parameters: frame resolution, 256 × 512; tube voltage, 80 kVp; current, 0.5 mA; and exposure time, 500 ms/frame.
The images were reconstructed by two-dimensional-ordered subsets expectation maximization. The three-dimensional regions of interest (ROIs) were superimposed on the high uptake region in carotid arteries of ApoE-/-mice. The tissue density was presumed as 1 g/ml, and % ID/g was calculated based on the dose injected into the mice.

[3] = set-up: method as in Wang S. et al., 2018; settings: ref Wang S. et al., 2018, cited from earlier work
[4] = target: T2, 5-HT3 (Mus musculus, UniProt P23979); assay: Blocking experiment with ondansetron pre-injection, brain uptake; assay type: in vivo; settings: ondansetron 2 mg/kg pre-injected 10 min before tracer; CD-1 mice brain, 60 min after injection
T2 construct: from tissue; host or cells: brain of living CD-1 mice
T2 sequence (P23979 24-489): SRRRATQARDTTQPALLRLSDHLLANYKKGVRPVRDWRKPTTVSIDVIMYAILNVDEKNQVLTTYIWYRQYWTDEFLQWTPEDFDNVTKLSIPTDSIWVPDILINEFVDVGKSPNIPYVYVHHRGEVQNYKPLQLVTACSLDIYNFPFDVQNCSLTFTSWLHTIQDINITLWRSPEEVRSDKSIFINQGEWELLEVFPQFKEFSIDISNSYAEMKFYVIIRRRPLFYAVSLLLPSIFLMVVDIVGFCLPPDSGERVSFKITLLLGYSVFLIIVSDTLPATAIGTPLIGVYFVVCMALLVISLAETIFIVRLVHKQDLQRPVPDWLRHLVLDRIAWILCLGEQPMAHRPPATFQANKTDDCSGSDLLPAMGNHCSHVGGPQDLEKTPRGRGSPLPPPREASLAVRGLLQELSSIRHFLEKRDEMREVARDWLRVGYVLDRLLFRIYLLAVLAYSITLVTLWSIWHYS
Description: (§1) To further determine the specific binding of [^18F]YLF-DW to α7nAChR over other similar receptors, blocking experiments were carried out by pre-subcutaneous injection of blocking agents. α4β2nAChR, a heteromeric nAChR subtype widely expressed and 5-HT3, a receptor sharing high sequence homology with α7nAChR, were the most likely receptors to cross binding with α7nAChR ligands. We used the brain tissues of CD-1 mice to do the blocking experiment. Cytisine (1 mg/kg, a selective partial agonist of α4β2nAChR) and ondansetron (2 mg/kg, a selective antagonist of 5-HT3) were pre-injected 5 and 10 min prior to the intravenous injection of [^18F]YLF-DW, respectively. The CD-1 mice were sacrificed at 60 min after the [^18F]YLF-DW injection, and the brain tissues were harvested.

[5] = target: T3, α4β2nAChR (Mus musculus, UniProt O70174+Q9ERK7); assay: Blocking experiment with cytisine pre-injection, brain uptake; assay type: in vivo; settings: cytisine 1 mg/kg pre-injected 5 min before tracer; CD-1 mice brain, 60 min after injection
T3 construct: from tissue; host or cells: brain of living CD-1 mice
T3 sequence (O70174 31-629): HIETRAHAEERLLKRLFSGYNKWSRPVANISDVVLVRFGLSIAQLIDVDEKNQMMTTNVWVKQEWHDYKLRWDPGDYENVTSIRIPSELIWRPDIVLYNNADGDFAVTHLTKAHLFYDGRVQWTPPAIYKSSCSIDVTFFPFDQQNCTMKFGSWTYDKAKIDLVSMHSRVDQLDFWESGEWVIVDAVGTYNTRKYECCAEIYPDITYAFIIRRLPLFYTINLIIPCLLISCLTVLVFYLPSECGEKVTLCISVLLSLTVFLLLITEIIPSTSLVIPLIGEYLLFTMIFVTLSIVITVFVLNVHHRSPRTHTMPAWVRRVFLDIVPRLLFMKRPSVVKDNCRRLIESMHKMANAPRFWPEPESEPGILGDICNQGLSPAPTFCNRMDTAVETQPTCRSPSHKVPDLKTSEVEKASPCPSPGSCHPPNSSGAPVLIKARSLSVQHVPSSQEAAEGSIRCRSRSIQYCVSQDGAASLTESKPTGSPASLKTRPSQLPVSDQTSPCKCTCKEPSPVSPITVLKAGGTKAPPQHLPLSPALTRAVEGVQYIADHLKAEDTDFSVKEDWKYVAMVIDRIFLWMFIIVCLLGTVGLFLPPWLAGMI
T3 sequence (Q9ERK7 26-501): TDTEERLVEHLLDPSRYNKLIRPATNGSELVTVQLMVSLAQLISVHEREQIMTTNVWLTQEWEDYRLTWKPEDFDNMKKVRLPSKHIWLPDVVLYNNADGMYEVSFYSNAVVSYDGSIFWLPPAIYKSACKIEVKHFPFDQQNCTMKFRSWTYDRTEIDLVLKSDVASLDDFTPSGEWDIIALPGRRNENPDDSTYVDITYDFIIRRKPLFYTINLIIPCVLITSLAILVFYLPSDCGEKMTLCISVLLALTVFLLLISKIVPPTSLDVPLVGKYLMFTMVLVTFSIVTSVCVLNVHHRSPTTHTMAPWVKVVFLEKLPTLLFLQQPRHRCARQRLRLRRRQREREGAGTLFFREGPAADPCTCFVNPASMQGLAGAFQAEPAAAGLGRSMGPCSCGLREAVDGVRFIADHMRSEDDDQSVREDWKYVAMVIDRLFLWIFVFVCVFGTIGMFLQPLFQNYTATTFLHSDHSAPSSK
Description: as §1

Q: For `O=C1c2cc(N3CCN4CCC3CC4)ccc2-c2cccc([18F])c21` [[^18F]YLF-DW], which Ki [1] is on record?
A: 2.98 ± 1.41 nM

Q: What about the “carotid artery plaque imaging signal” value ([2]; ApoE-/-mouse, 5.56 MBq i.v., acquisition 1 h after injection) of the same molecule?
A: obvious in the carotid artery

Q: What about the “early detection of carotid plaques compared with traditional imaging agent” value ([2]; ApoE-/-mouse, comparison with [^18F]FDG) of the same molecule?
A: better than [^18F]FDG

Q: What about the “carotid artery imaging signal” value ([2]; normal control mice, 5.56 MBq i.v., acquisition 1 h after injection) of the same molecule?
A: no signal was observed

Q: And the initial brain uptake ([3]; 15 min post-injection, Kunming mouse)?
A: 11.60 ± 0.14 %ID/g

Q: What about the brain/blood value ([3]; 30 min post-injection, Kunming mouse) of the same molecule?
A: 9.57

Q: And the clearance from brain ([3]; Kunming mouse brains)?
A: fast clearance

Q: And the “difference in radioligand uptake, blocked group vs control group” value [4]?
A: no significant difference

Q: And the “difference in radioligand uptake, blocked group vs control group” value [5]?
A: no significant difference
